The target in one data set is T1, RAGE-C1q binding (Homo sapiens, UniProt P02745+P02746+P02747).
T1 construct: Three forms of human sRAGE, the extracellular domain of the receptor, were utilized; made in house; host or cells: Sf9 insect cells (baculovirus)
Nature of the data set: ELISA-like C1q-sRAGE binding assay in presence of test substance. The settings on record: for ability of known RAGE ligands to block C1q binding to immobilized sRAGE: data not shown; for effect on C1q binding to immobilized sRAGE (RAGE-C1q interaction): 0-2 mM compound with 2 μg/ml C1q, 2 h. Here is the method:
“+” and “−” in (B) and (C) indicate whether the C1q was preincubated with monoclonal antibody or not, respectively. Results in (B) and (C) were mean±SD of three independent experiments. *p<0.01 in pair comparison indicated in the graph.
The final peroxidase activity was monitored at 492 nm with o-phenylenediamine dihydrochloride and hydrogen peroxide as substrates. […] Remaining binding sites were blocked with 5% non-fat milk in PBS. […] ECL Western blot detection kit was used to visualize the binding.

The next data set concerns complement system. Nature of the data set: Complement activation assay (C3a formation in human serum). It is filed as biochemical. Here is the method: Complement activation was monitored as C3a formation from proteolytic cleavage of C3 by ELISA kit.
C3a was assayed by ELISA kit.
Two different forms of each protein were tested, one was immobilized and the other was free molecule in serum (dissolved). For immobilized forms, 96-well MaxiSorp plate was coated with 50 μg/ml of each protein and blocked with BSA. Complement activation was performed as in (A).
After 1 h incubation, C3a levels in the human serum were determined as a marker of complement activation with human C3a EIA kit according to the manufacturer's instructions.

The subject of another data set is U-937 cells. The data set can be described thus: Cytotoxicity and activation/differentiation test on U-937 cells. The format is cell-based, human. An excerpt:
Phenolphthalein bisphosphate has been used in bacteria culture media as phosphatase substrate. […] Phagocytes are major protective cells in the body by ingesting harmful foreign particles, bacteria, and dead or dying cells. In an in vivo abdominal sepsis model caused by intraperitoneally injection with Escherichia coli, RAGE was involved in defense against the growth and/or dissemination of E. coli (The Journal of Infectious Diseases 2009, 200:765-773). In the presence of RAGE, E. coli numbers were much lower in the injection site as well as in major organs of the mouse. With the help of phenolphthalein bisphosphate, we expect that RAGE's function in this sepsis model could be enhanced further.

Data set [1] concerns U937 cells. The data set can be described thus: Monocyte adhesion: U937 cells to C1q-coated plate. It is filed as cell-based, human. The following applies: 2 mM in medium, 24 h. Here is the method:
U-937 cells (2×10^5/ml) cultured in RPMI medium containing 10% fetal bovine serum, 100 units/ml of penicillin and 100 μg/ml of streptomycin were incubated with 100 nM of D3 and 2 ng/ml of TGF-β at 37° C. in a 5% CO2 incubator for 24 hours. After washing twice with serum-free RPMI medium, U-937 cells were suspended at concentration of 2×10^5/ml in serum-free RPMI medium containing 0 or 100 μg/ml of chicken anti-human RAGE IgY or 20 μg/ml of F(ab′)2 of mouse anti-human CD11b IgG1. As controls, 100 μg/ml of chicken anti-AGE IgY and 100 μg/ml of mouse IgG1 isotype control were used. […] The cells were cultured for 24 hours, then 50 μl of serum-free RPMI medium containing 15 μM of Calcein AM was added into each well to label U-937 cells with fluorescence for 1 hour. After three gentle washes with Hanks' balanced salt solution, the attached U-937 cells were photographed with regular light and fluorescent light, as shown in panel A. To quantitatively measure cell attachment, the plate was read with fluorescence plate reader with excitation at 485 nm and emission at 530 nm, as shown in panel B. The p value was calculated by student T-test with at least 4 samples for each condition. […]
(A) ARPE-19RAGE cells expressed high level of RAGE protein. Ten micrograms of total proteins from ARPE-19, ARPE-19RAGE and RAGE-transfected C6 cells (C6-RAGE) were analyzed for RAGE expression by Western blot. […]

Data set [2] concerns U937 cells. The data set can be described thus: Phagocytosis of apoptotic Jurkat cells by differentiated U937 cells (FACS). The format is cell-based, human. The following applies: with addition of C1q; basal level 47%.
Experimental: (A) Representative dot-plots of different cell populations separated by FACS after 2 h phagocytosis of apoptotic Jurkat cells: top-left U937 cells without phagocytosis; top-right phagocytic U937 cells labeled with percentage of total U937 population; bottom-right apoptotic Jurkat cells. (B) FACS analysis of phagocytosis of apoptotic Jurkat cells and effect of anti-RAGE and anti-CD11b antibodies. […] Results in (B) and (D) were mean±SD of three independent experiments. *p<0.01 in pair comparison indicated in the graph.
U937 cells (2×10^5/ml) were differentiated in standard medium containing 100 nM of vitamin D3 and 2 ng/ml of TGF-β1 at 37° C. in a 5% CO2 incubator for 2 days, with refreshment of vitamin D3 and TGF-β1 at 24 h. Differentiated U937 cells were harvested and re-suspended in Hank's Balanced Salt Solution (HESS, containing calcium and magnesium) at 2×10^6/ml, and then labeled with 5 μM of CM-DiI at 37° C. for 20 min. Labeling was ended by washing cells three times with HESS. The resulted cells were re-suspended at 4×10^5/ml in phagocytosis buffer (HESS plus 2 mM MgCl2 and 20 mM glutamate, pH 7.0).
To label Jurkat cells with CFSE (carboxyfluorescein succinimidyl ester), Jurkat cells were incubated with 1 μM of CFDA-SE in HESS for 30 min at 37° C. Harvested cells were resuspended (1×10^6/ml) in HESS containing 1 μM of staurosporine and incubated at 37° C. for 6 h. […]
The next data set has as its target T2, Mac-1 (Homo sapiens, UniProt P05107+P11215).
T2 construct: purchased R&D Systems 4047-AM
Nature of the data set: Pull-down of sRAGE and C1q by immobilized Mac-1. It is filed as binding. The settings on record: ½ PBS. Here is the method:
The plate was cooled down on ice for 10 min and washed quickly three-times with cold ½ PBS. […] Stripping of Western blot membranes was performed with buffer from Pierce according to the manufacturer's instructions.

Data set [3] relates to RAGE-overexpressing cells. Nature of the data set: Steady state binding of free C1q to RAGE-overexpressing cells. The format is cell-based, human. The following applies: data not shown. An excerpt:
RAGE expression was compared with another RAGE over-expressing cell line C6-RAGE, generated from rat astroglial C6 (Taguchi, 2000), with the result shown in FIG. 15A.
FIG. 10E was used (data not shown). […] The results using rat native serum with RAGE-transfected C6 cells produced similarly unremarkable results (results not shown).

The results in this text go back to US20160139120A1 (The Trustees of Columbia University in the City of New York, priority 2013, published 2016).

T1 sequence (P02745 23-245): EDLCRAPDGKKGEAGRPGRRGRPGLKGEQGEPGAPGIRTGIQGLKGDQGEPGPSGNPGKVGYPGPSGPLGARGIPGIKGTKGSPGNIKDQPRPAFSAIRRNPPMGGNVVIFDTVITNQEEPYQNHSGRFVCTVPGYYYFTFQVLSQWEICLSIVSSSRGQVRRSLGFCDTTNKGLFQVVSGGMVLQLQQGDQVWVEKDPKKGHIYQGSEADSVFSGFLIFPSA
T1 sequence (P02746 28-253): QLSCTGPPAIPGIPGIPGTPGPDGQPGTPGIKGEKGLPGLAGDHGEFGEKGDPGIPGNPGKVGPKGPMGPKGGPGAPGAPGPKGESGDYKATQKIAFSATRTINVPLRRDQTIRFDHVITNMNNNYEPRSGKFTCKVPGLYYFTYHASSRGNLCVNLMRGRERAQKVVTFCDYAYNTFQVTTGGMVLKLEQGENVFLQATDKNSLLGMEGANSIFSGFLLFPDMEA
T1 sequence (P02747 29-245): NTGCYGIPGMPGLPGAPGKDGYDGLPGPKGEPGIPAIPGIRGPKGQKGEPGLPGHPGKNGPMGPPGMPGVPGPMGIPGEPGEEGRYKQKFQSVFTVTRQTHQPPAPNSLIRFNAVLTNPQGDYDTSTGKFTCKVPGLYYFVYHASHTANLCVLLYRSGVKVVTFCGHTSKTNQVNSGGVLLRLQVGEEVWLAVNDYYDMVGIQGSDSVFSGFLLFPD
T2 sequence (P05107 23-700 limits assumed, other chains not shown): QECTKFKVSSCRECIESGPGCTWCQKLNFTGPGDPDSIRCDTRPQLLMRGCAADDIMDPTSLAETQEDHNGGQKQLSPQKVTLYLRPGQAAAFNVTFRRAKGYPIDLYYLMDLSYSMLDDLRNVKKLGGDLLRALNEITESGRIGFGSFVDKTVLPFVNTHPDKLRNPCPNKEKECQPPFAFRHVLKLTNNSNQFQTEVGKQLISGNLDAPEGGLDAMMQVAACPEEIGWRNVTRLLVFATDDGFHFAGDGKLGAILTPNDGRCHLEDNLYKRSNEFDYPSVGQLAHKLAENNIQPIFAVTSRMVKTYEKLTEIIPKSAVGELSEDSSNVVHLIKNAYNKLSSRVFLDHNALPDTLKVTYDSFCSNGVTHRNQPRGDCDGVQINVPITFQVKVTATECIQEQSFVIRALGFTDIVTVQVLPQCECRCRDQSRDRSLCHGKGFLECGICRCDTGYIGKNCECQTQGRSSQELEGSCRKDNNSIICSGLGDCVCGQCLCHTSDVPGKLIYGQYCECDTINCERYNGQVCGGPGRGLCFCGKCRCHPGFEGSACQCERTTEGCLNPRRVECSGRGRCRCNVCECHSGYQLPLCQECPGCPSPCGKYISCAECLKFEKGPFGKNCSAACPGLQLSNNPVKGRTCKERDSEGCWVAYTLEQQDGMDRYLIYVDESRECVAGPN

For the compound “51003: known RAGE ligand; S100B obtained from Calbiochem [compound 51003]”, the “ability of known RAGE ligands to block C1q binding to immobilized sRAGE” value (“ability of known RAGE ligands” below) in the data set with RAGE-C1q binding is “unable to block C1q binding to immobilized sRAGE”.
Consider `O=C1OC(c2ccc(OP(=O)([O-])[O-])cc2)(c2ccc(OP(=O)([O-])[O-])cc2)c2ccccc21.[Na+].[Na+].[Na+].[Na+]` [phenolphthalein bisphosphate, Phenolphthalein bisphosphate tetrasodium salt], for which the “effect on complement activation of sRAGE” value in the data set on complement system (1 mM compound, 2 μg sRAGE in 20 μl fresh human serum) is given as “without enhancement on complement activation”. Moreover, in the data set on U-937 cells, the “activation or differentiation of U-937 cells” value is listed as “couldn't activate or differentiate U-937 cells”. Besides, the cytotoxicity result in the data set on U-937 cells (2 mM) is “no cytotoxicity”. The “effect on C1q binding to immobilized sRAGE (RAGE-C1q interaction)” value at RAGE-C1q binding is “Phenolphthalein bisphosphate enhanced RAGE-C1q”; at RAGE-C1q binding (listed as Phenolphthalein Biphosphate), “enhance RAGE-C1q interaction with dose-dependent manor”. In addition, the “effect of compound on U-937 cells adhesion to C1q-coated plate” value was “significantly increase the adherent U-937 cells” with U937 cells [1] and “Phenolphthalein bisphosphate increased monocytes” with U937 cells [1] (listed as Phenolphthalein bisphosphate).
AGE-BSA: glycated bovine serum albumin: the “ability of known RAGE ligands” value with RAGE-C1q binding is “unable to block C1q binding to immobilized sRAGE”.
Turning to “Avastin: a humanized IgG1 antibody for VEGF”, the “complement activation (C3a) activity relative to sRAGE” value in the data set with complement system (at every coating concentration) is reported as “about 8 times”.
Take “C1q: human C1q protein (Quidel); first subcomponent of the C1 complex of the classical complement pathway”: the “phagocytic U937 cells population, of total U937 cells” value in the data set with U937 cells [2] is listed as 66%. Besides, in the data set with Mac-1, the “pull-down by immobilized Mac-1, proteins incubated separately” value was “pulled down”; the “pull-down by immobilized Mac-1, sRAGE and C1q co-incubated” value is on record as “increased”. Moreover, the “binding of free C1q to cells” value in data set [3] is on record as “did not bind”.
Turning to “Mac-1: recombinant form of human Mac-1 (CD11b/CD18), R&D Systems 4047-AM”, the “complement activation in liquid phase” value in the data set with complement system (protein(s) preincubated in PBS then added to fresh human serum (FIG. 13B)) was “could not activate the complement system”.
Turning to “amyloid β protein fragment 1-42 [A-beta]”, in the data set with RAGE-C1q binding, the “ability of known RAGE ligands” value is recorded as “unable to block C1q binding to immobilized sRAGE”.
